Data taken from patent US6586435B2, “Benzimidazolone derivatives displaying affinity at the serotonin and dopamine receptors” (Boehringer Ingelheim Pharma KG, priority 2000, dated 2003).
Like-named read-outs stand apart in the source and are kept apart here.

Tests used:
5-HT1A human receptors = molecular target: T1, 5-HT1A human receptors (Homo sapiens, UniProt P08908); test: 5-HT1A radioligand receptor binding assay ([3H]-8-OH-DPAT); details: for inhibition at 0.1 µM: compound 10^−7 M, singlicate, [3H]-8-OH-DPAT 0.6-0.7 nM
T1 construct: expressed in transfected cells; host or cells: CHO cells
T1 sequence (P08908 1-422): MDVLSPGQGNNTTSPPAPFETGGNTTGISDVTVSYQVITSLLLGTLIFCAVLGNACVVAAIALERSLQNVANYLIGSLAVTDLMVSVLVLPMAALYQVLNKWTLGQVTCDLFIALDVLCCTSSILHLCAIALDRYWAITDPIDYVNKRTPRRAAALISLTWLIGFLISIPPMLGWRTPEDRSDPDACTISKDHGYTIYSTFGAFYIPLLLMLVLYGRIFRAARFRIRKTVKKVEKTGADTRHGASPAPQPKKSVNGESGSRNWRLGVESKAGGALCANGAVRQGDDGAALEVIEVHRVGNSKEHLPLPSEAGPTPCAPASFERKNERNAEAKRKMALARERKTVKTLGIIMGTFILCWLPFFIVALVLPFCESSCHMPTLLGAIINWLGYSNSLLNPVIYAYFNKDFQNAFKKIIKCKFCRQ
Description: 5-HT1A, Radioligand Receptor Binding Assay
Membranes from CHO cells, expressing 5-HT1A human receptors were suspended in incubation buffer.
Binding assays were performed in MultiProbe 204 pipetting system (Packard), according to a predetermined mapping, consistent with the software Screen. The compounds were tested in singlicate at one concentration (10^−7 M) in a total volume of 1000 μl. 980 μl of diluted membranes, 10 μl DMSO or unlabelled ligand, and 10 μl of [^3H]-8-OH-DPAT (0.6-0.7 nM) were incubated for 60 minutes at 27° C. The reaction was stopped by rapid filtration through Tomtec Cell Harvester (48 wells) using Filtermat B (presoaked in 0.1% PEI) filters. Filters were washed with ice-cold 50 mM Tris-HCl (pH 7.4) buffer (9×700 μl), dried, covered with MeltiLex B/HS scintillator sheets (Wallac) and heated at 80° C. to 90° C. for about 10 minutes, transferred into plastic sample bags (Wallac), sealed and put into 1024 Beta Plate scintillation counter (Wallac). Non-specific binding was determined in the presence of 5-HT (10^−5 M).
The specific radioligand binding to the receptor was defined by the difference between total binding and non-specific binding, determined in the presence of an excess of unlabelled ligand. Results were expressed as percentage of control specific binding obtained in the presence of the compounds. The affinity values (IC50) for the compounds were obtained by a nonlinear least squares regression analysis on the basis of a one binding site model.

[1] = molecular target: T2, 5-HT1A receptor (CHO/5-HT1A cells) (Homo sapiens, UniProt P08908); test: 5-HT1A functional assay (cAMP); type: cell-based; details: 10 μM compound, % inhibition of the cAMP accumulation induced by 10 μM FSK, read-out: 5-HT1A cAMP % Inhibition (agonist activity)
T2 construct: expressed in transfected cells; host or cells: CHO/5-HT1A cells
T2 sequence (P08908 1-422): T1 sequence (P08908 1-422)
Description: 5-HT1A Functional Assay (cAMP)
CHO/5-HT1A cells were random seeded at a density of about 200,000/well in 24 well plates the day prior to the experiment. On the day of the experiment, cells were pretreated for 15 minutes at 37° C. with 500 μM isobutylmethylxantine (IBMX) dissolved in culture medium without serum. Wells were then divided in different groups in duplicate as follows: control, 10 μM FSK, 10 μM FSK+1 μM 5-HT as positive standard and 10 μM FSK+10 μM of the different compound under evaluation. Sample solutions were added and incubated for additional 15 minutes at 37° C. After incubation, medium was aspirated and the reaction stopped by adding 200 μl of lysis buffer. Plates were shaken for 5 minutes, then the lysate was removed and samples were stored at 4° C. until the day of the assay. For the cAMP evaluation, samples were properly diluted and the cAMP content was measured by an enzyme immunoassay system.
Results are expressed as % inhibition of the cAMP accumulation induced by 10 μM FSK.

D4 human receptors = molecular target: T3, D4 human receptors (Homo sapiens, UniProt P21917); test: D4 radioligand receptor binding assay ([3H] YM-09151-2); details: compound 10^−7 M, singlicate; membranes from CHO cells; [3H] YM-09151-2 0.15-0.25 nM
T3 construct: expressed in transfected cells; host or cells: CHO cells
T3 sequence (P21917 1-419): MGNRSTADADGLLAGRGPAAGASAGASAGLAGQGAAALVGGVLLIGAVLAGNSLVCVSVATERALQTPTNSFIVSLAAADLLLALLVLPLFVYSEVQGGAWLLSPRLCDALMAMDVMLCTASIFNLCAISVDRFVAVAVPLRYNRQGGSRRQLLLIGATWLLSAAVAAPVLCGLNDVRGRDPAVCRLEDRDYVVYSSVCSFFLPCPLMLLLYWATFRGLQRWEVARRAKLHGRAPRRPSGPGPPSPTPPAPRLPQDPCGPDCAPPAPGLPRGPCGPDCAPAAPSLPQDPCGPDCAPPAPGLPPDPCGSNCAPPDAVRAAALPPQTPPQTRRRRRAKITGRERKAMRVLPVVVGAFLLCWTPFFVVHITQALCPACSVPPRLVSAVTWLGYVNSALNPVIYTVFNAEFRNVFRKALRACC
Description: D4 Radioligand Receptor Binding Assay
Membranes from CHO cells, expressing D4 human receptors were suspended in incubation buffer.
Binding assays were performed in MultiProbe 204 pipetting system (Packard), according to a predetermined mapping, consistent with the software Screen. The compounds were tested in singlicate at one concentration (10^−7 M) in a total volume of 1000 μl (980 μl of diluted membranes, 10 μl DMSO or unlabelled ligand, and 10 μl of [^3H] YM-09151-2 (0.15-0.25 nM). After incubation for 120 minutes at 27° C., the reaction was stopped by rapid filtration through Tomtec Cell Harvester (48 wells) using Filtermat B (presoaked in 0.1% PEI) filters. Filters were washed with ice-cold 50 mM Tris-HCl (pH 7.4) buffer (9×700 μl), dried, covered with MeltiLex B/HS (Wallac) scintillator sheets and heated in oven at 80° C.-90° C. for about 10 minutes, transferred into plastic sample bags (Wallac), sealed and put into 1024 Beta Plate scintillation counter (Wallac). Non-specific binding was determined in the presence of clozapine dissolved in DMSO to a final concentration of 10^−5 M.
The specific radioligand binding to the receptor was defined by the difference between total binding and non-specific binding, determined in the presence of an excess of unlabelled ligand. Results were expressed as percentage of control specific binding obtained in the presence of the compounds.

[2] = membranes from CHO cells, [3H]-8-OH-DPAT, one binding site model, read-out: 5-HT1A Receptor Binding IC50

SMILES | IC50 (5-HT1A human receptors) [nM] | inhibition at 10 µM [1] [%] | inhibition at 0.1 µM (5-HT1A human receptors; membranes from CHO cells) [%] | IC50 (5-HT1A human receptors; [2]) [nM] | inhibition at 0.1 µM (D4 human receptors) [%]
O=c1n(C/C=C/CN2CC=C(c3ccccc3)CC2)c2ccccc2n1CC1CCCCC1 [Compound 129] | 5.5 | 13 |  |  | 
Cn1c(=O)n(C/C=C/CN2CCN(c3cccc(Cl)c3)CC2)c2ccccc21 [Compound 90] |  | 62 | 98 | 4.6 | 79
O=c1n(C/C=C\CN2CC=C(c3ccccc3)CC2)c2ccccc2n1CC1CCCCC1 [Compound 78] | 18 | 27 | 86 |  | 40
Cn1c(=O)n(C/C=C/CN2CCN(c3cccc(C(F)(F)F)c3)CC2)c2ccccc21 [Compound 94] |  | 75 |  | 0.96 | 
O=c1n(C/C=C/CN2CCc3c([nH]c4ccccc34)C2)c2ccccc2n1CC1CCCCC1 [Compound 126] |  | 44 |  | 15 | 
Cn1c(=O)n(C/C=C\CN2CC=C(c3ccccc3)CC2)c2ccccc21 [Compound 44] | 2.5 | 47 | 94 |  | 69
O=c1n(C/C=C/CN2CCN(c3cccc(Cl)c3)CC2)c2ccccc2n1CC1CCCCC1 [Compound 124] |  | 47 | 99 | 11 | 49
CCCn1c(=O)n(C/C=C/CN2CCN(c3cccc(Cl)c3)CC2)c2ccccc21 [Compound 107] |  | 54 | 96 | 5.3 | 69
O=c1n(C/C=C\CN2CCN(c3ccccc3)CC2)c2ccccc2n1CC1CCCCC1 [Compound 69] |  | 52 | 90 | 13 | 41
CCCn1c(=O)n(C/C=C\CN2CC=C(c3ccccc3)CC2)c2ccccc21 [Compound 61] | 5.2 | 26 | 90 |  | 44
Cn1c(=O)n(C/C=C\CN2CCN(c3ccccc3)CC2)c2ccccc21 [Compound 35] |  | 66 | 88 | 15 | 59
O=c1[nH]c2ccccc2n1C/C=C\CN1CCN(c2cccc(C(F)(F)F)c2)CC1 [Compound 26] | 6.6 | 68 | 94 |  | 49
O=c1[nH]c2ccccc2n1C/C=C\CN1CC=C(c2ccccc2)CC1 [Compound 27] | 6.4 | 44 | 87 |  | 70
CCCn1c(=O)n(C/C=C\CN2CCN(c3ccccc3)CC2)c2ccccc21 [Compound 52] |  | 54 | 90 | 16 | 47
CCCn1c(=O)n(C/C=C\CN2CCN(c3cccc(C(F)(F)F)c3)CC2)c2ccccc21 [Compound 60] |  | 71 | 88 | 1.8 | 30
O=c1n(C/C=C/CN2CCN(c3ccccc3)CC2)c2ccccc2n1CC1CCCCC1 [Compound 120] |  | 17 | 98 | 6 | 49
Cn1c(=O)n(C/C=C\CN2CCN(c3cccc(Cl)c3)CC2)c2ccccc21 [Compound 39] |  | 63 | 91 | 9.8 | 72
O=c1n(C/C=C/CN2CCN(c3ncccn3)CC2)c2ccccc2n1CC1CCCCC1 [Compound 125] |  | 49 | 90 | 3.3 | 51
Cn1c(=O)n(C/C=C/CN2CC=C(c3ccccc3)CC2)c2ccccc21 [Compound 95] | 7.3 | 22 | 92 |  | 46
Cn1c(=O)n(C/C=C/CN2CCN(c3ccccn3)CC2)c2ccccc21 [Compound 89] |  | 66 | 92 | 10 | 34
Cn1c(=O)n(C/C=C/CN2CCc3c([nH]c4ccccc34)C2)c2ccccc21 [Compound 92] |  | 46 | 88 | 15 | 54
CCCn1c(=O)n(C/C=C\CN2CCN(c3cccc(Cl)c3)CC2)c2ccccc21 [Compound 56] |  | 65 | 92 | 11 | 65
CCCn1c(=O)n(C/C=C/CN2CCN(c3cccc(C(F)(F)F)c3)CC2)c2ccccc21 [Compound 111] |  | 68 | 94 | 4.4 | 32
O=c1[nH]c2ccccc2n1C/C=C/CN1CCN(c2cccc(C(F)(F)F)c2)CC1 [Compound 9] | 4.8 | 80 | 96 |  | 54
Cn1c(=O)n(C/C=C\CN2CCN(c3cccc(C(F)(F)F)c3)CC2)c2ccccc21 [Compound 43] |  | 73 | 94 | 1.2 | 54
O=c1n(C/C=C/CN2CCN(c3ccccn3)CC2)c2ccccc2n1CC1CCCCC1 [Compound 123] |  | 63 | 98 | 1.2 | 57
O=c1n(C/C=C/CN2CCN(c3cccc(C(F)(F)F)c3)CC2)c2ccccc2n1CC1CCCCC1 [Compound 128] |  | 61 |  | 8.4 | 
CCCn1c(=O)n(C/C=C/CN2CCN(c3ccccn3)CC2)c2ccccc21 [Compound 106] |  | 68 | 92 | 7.4 | 37
